Reference: a melting point compilation (Tetko et al.)

**Q.** Which melting point does the source give for `Clc1cc(Cl)c2oc3c(Cl)c(Cl)c(Cl)cc3c2c1` here?
**A.** 219 °C

**Q.** For `N#CCc1csc2ccc(Cl)cc12`, which melting point is on record?
**A.** 134 °C

**Q.** With `COC(=O)C1=C(C)NC(C)=C(C(=O)OC)C1c1cccc(OC)c1O` as the compound, how does the melting point read?
**A.** 191 °C

**Q.** Which melting point does the source give for `Cc1cccc(Cc2ccccc2)c1` here?
**A.** -28 °C

**Q.** Which melting point does the source give for `O=C(O)C=Cc1cc(F)ccc1F` here?
**A.** 139 °C

**Q.** For `c1ccc(O[Si](Oc2ccccc2)(Oc2ccccc2)Oc2ccccc2)cc1`, which melting point is on record?
**A.** 49 °C

**Q.** With `N#Cc1cccc2c(NC(=O)c3ccccc3)cccc12` as the compound, how does the melting point read?
**A.** 211 to 212 °C

**Q.** Which melting point does the source give for `Cc1c(C)c(C)c2c(c1C)CC1C=CC=CN1C2=O` (stereo unspecified) here?
**A.** 139 °C

**Q.** Which melting point does the source give for `CC12CCC(O)CC1CCC1C2CCC2(C)C(OC(=O)c3ccccc3)CCC12` (stereo unspecified) here?
**A.** 194 °C

**Q.** Which melting point does the source give for `C#CC1(O)CCC2C3C(C)CC4=C(CCC(=O)C4)C3CCC21C` (stereo unspecified) here?
**A.** 167 °C

**Q.** With `Cc1ccccc1/N=N/c1c(C)[nH]c(=S)c(C#N)c1C` as the compound, how does the melting point read?
**A.** 178 °C

**Q.** Which melting point does the source give for `CC(C)NC(=O)C(C)C` here?
**A.** 103 to 104 °C

**Q.** For `CC12CCC(=O)CC1CCC1C2CCC2(C)C(O)(C(=O)CO)CCC12O` (stereo unspecified), which melting point is on record?
**A.** 218 °C

**Q.** With `CCCOC(=O)c1ccccc1` as the compound, how does the melting point read?
**A.** -51.6 °C

**Q.** For `O=C(Nc1ccccc1)OC1C=CC=CC(OC(=O)Nc2ccccc2)C1` (stereo unspecified), which melting point is on record?
**A.** 181 °C

**Q.** Which melting point does the source give for `Nc1ccc(-c2cnco2)cc1` here?
**A.** 150 to 151 °C

**Q.** For `COc1ccc(C=C2SC(=NN=CC(C)C)NC2=O)cc1`, which melting point is on record?
**A.** 258 to 260 °C

**Q.** With `OC1c2ccccc2CCc2ccccc21` as the compound, how does the melting point read?
**A.** 92 °C

**Q.** Which melting point does the source give for `Fc1ncccc1I` here?
**A.** 45 to 46 °C

**Q.** Which melting point does the source give for `OCc1ccc(-c2ncccn2)cc1` here?
**A.** 76.5 to 77.5 °C

**Q.** For `OCCC(F)(F)C(F)(F)C(F)(F)C(F)(F)F`, which melting point is on record?
**A.** -58 °C

**Q.** With `CCCSC` as the compound, how does the melting point read?
**A.** -113 °C

**Q.** With `CCc1ccc(C(=O)NN(C(=O)c2cc(C)cc(C)c2)C(C)(C)C)cc1` as the compound, how does the melting point read?
**A.** 191 °C

**Q.** For `COC(=O)C1=C(N)Oc2cc(C)n(CCc3ccccc3)c(=O)c2C1c1ccc(OC)cc1` (stereo unspecified), which melting point is on record?
**A.** 211 to 213 °C

**Q.** For `CS(=O)(=O)c1ccc(OC(F)(F)F)cc1`, which melting point is on record?
**A.** 67 °C

**Q.** With `OC(c1ccccc1)(c1ccccc1)[C@H]1CCCN1` as the compound, how does the melting point read?
**A.** 77 to 81 °C

**Q.** Which melting point does the source give for `C1=NCC(c2ccc(C3CN=CC=N3)cc2)N=C1` (stereo unspecified) here?
**A.** 262 °C

**Q.** For `O=Cc1cc(Cl)cc(C=O)c1O`, which melting point is on record?
**A.** 119 to 125 °C

**Q.** For `CC(=O)OCC1OC=CC(OC(C)=O)C1OC(C)=O` (stereo unspecified), which melting point is on record?
**A.** 54 °C

**Q.** For `O=c1c2ccccc2cc2n1CCc1ccccc1-2`, which melting point is on record?
**A.** 101 °C

**Q.** For `COc1ccc2c(c1OC)CN(C)CCc1cc3c(cc1C(=O)C2)OCO3`, which melting point is on record?
**A.** 160 °C

**Q.** For `CCCCCCCCCC1CCCC1`, which melting point is on record?
**A.** -29 °C

**Q.** Which melting point does the source give for `SC1=NN=C(S)NN1` here?
**A.** 191 to 193 °C

**Q.** Which melting point does the source give for `COc1ccccc1C1CCN(c2ccc(C=O)cc2[N+](=O)[O-])CC1` here?
**A.** 116 to 118 °C

**Q.** With `CSc1nn(-c2ccccc2)cc1C#N` as the compound, how does the melting point read?
**A.** 106 to 108 °C

**Q.** For `Sc1nccc(-c2ccc(Cl)cc2)n1`, which melting point is on record?
**A.** 210 to 214 °C

**Q.** Which melting point does the source give for `COC(=O)c1cc(Cl)ccc1Br` here?
**A.** 39 °C

**Q.** Which melting point does the source give for `CSc1cc(-c2ccc(Cl)cc2)c2c(=O)n(-c3ccccc3)n(C)c2c1` here?
**A.** 167 °C

**Q.** For `Cc1nc(-c2ccc(Br)cc2)no1`, which melting point is on record?
**A.** 98 to 99 °C

**Q.** For `CC(C)n1c(O)nnc1S`, which melting point is on record?
**A.** 167 to 170 °C

**Q.** For `COc1ccc(/N=N/c2c(N)nn3c(C)cc(=O)[nH]c23)cc1`, which melting point is on record?
**A.** 276 °C

**Q.** For `CC(C)(C)N(NC(=O)c1ccccc1)C(=O)c1ccccc1I`, which melting point is on record?
**A.** 188 °C

**Q.** For `CC1(C)OC(=O)C(=NNc2ccc(C(=O)O)cc2)C(=O)O1`, which melting point is on record?
**A.** 223 °C

**Q.** Which melting point does the source give for `O=C(O)c1ccc(NC(=O)C(Cc2ccc(O)cc2)NC(=O)c2ccccc2)cc1` (stereo unspecified) here?
**A.** 241 °C

**Q.** For `CC(C=Cc1ccccc1)=NO`, which melting point is on record?
**A.** 116 to 120 °C

**Q.** Which melting point does the source give for `NS(=O)(=O)c1c(Cl)cc(Cl)cc1Cl` here?
**A.** 180 °C

**Q.** Which melting point does the source give for `CC(C)C(C)(C)C` here?
**A.** -25 °C

**Q.** With `c1ccc(SCc2ccc(CN3CCOCC3)cc2)cc1` as the compound, how does the melting point read?
**A.** 219 °C

**Q.** With `O=c1c2ccccc2nc2n1CCC2O` (stereo unspecified) as the compound, how does the melting point read?
**A.** 210 °C

**Q.** For `NCCCC(N)C(=O)O` (stereo unspecified), which melting point is on record?
**A.** 140 °C

**Q.** With `Cc1cc(C)n2nc(N)c(/N=N/c3cc(Cl)c(Cl)cc3Cl)c2n1` as the compound, how does the melting point read?
**A.** 295 °C

**Q.** With `N#CC1=C(N)OC2=C(CCCC2)C1c1ccccc1` (stereo unspecified) as the compound, how does the melting point read?
**A.** 261 °C

**Q.** For `NC(Cc1ccc(Br)cc1)C(=O)O` (racemic), which melting point is on record?
**A.** 262 to 263 °C

**Q.** With `CC(=O)c1ccc(C)cc1` as the compound, how does the melting point read?
**A.** 28 °C

**Q.** Which melting point does the source give for `CN1C(C(=O)Nc2ccccn2)=C(O)c2ccccc2S1(=O)=O` here?
**A.** 198 °C

**Q.** Which melting point does the source give for `Cc1cc(=O)oc2[nH]nc(C)c12` here?
**A.** 251 to 252 °C

**Q.** Which melting point does the source give for `O=C1c2ccccc2C(=O)N1CCCCCBr` here?
**A.** 60 °C

**Q.** With `Nc1cc(Cl)nc(Cl)c1` as the compound, how does the melting point read?
**A.** 174 °C

**Q.** Which melting point does the source give for `Oc1cccc(CN2CCCCC2)c1` here?
**A.** 140 °C

**Q.** With `O=CCCl` as the compound, how does the melting point read?
**A.** -16.3 °C

**Q.** For `Cc1cc(-c2ccccc2)n[nH]1`, which melting point is on record?
**A.** 127 to 128 °C

**Q.** With `N#Cc1ccc[nH]c1=O` as the compound, how does the melting point read?
**A.** 222 to 225 °C

**Q.** Which melting point does the source give for `CCCCC1C(=O)NC(=O)N(C2CCCCC2)C1=O` (stereo unspecified) here?
**A.** 84 °C

**Q.** Which melting point does the source give for `Cn1nc(CO)cc1-c1cccs1` here?
**A.** 56 to 60 °C

**Q.** Which melting point does the source give for `COC(=O)CCC(C)C1CCC2C3CCC4CC(OC(C)=O)CCC4(C)C3CC(OC(C)=O)C12C` (stereo unspecified) here?
**A.** 116 °C

**Q.** With `Cn1nc(N)c2c(=O)cc[nH]c21` as the compound, how does the melting point read?
**A.** 215 to 220 °C

**Q.** For `COc1ccc(C=O)c(OC)c1OC`, which melting point is on record?
**A.** 40 °C

**Q.** Which melting point does the source give for `CCCCCOC(=O)CC` here?
**A.** -73.1 °C

**Q.** Which melting point does the source give for `O=Cc1cc(Br)cc(OC(F)(F)F)c1O` here?
**A.** 46 °C

**Q.** Which melting point does the source give for `Cc1ccc(F)cc1C#N` here?
**A.** 43 to 45 °C

**Q.** For `CCOC(=O)c1c(-c2ccc(Cl)cc2)csc1N`, which melting point is on record?
**A.** 111 to 112 °C

**Q.** Which melting point does the source give for `COC(=O)c1cccc(C=O)c1` here?
**A.** 58 °C

**Q.** Which melting point does the source give for `COc1ccc(-c2cc3nc(C)cc(C(F)(F)F)n3n2)cc1` here?
**A.** 167 °C

**Q.** For `O=C(C=CC=Cc1ccccc1)C=CC=Cc1ccccc1`, which melting point is on record?
**A.** 139 to 144 °C

**Q.** For `O=[N+]([O-])c1cccnc1Oc1cncc(Cl)c1`, which melting point is on record?
**A.** 104 to 105 °C

**Q.** Which melting point does the source give for `[O-][P+](c1ccccc1)(c1ccccc1)C1C=C(c2ccccc2)C=C(c2ccccc2)S1` (stereo unspecified) here?
**A.** 174 °C

**Q.** Which melting point does the source give for `O=C1c2ccccc2C(=O)N1c1n[nH]c2ccccc12` here?
**A.** 239 to 241 °C

**Q.** With `O=C1CC2CCCCC2C1` (stereo unspecified) as the compound, how does the melting point read?
**A.** 10 °C

**Q.** With `CC(=O)C=Cc1oc2ccc([N+](=O)[O-])cc2c1-c1ccc(C)o1` as the compound, how does the melting point read?
**A.** 178 °C

**Q.** Which melting point does the source give for `CN(C)C(=O)Nc1ccc(-n2nc(C(C)(C)C)oc2=O)c(Cl)c1` here?
**A.** 193 °C

**Q.** Which melting point does the source give for `N#Cc1c(C(F)(F)F)cc(Nc2cccc([N+](=O)[O-])c2)nc1Cl` here?
**A.** 276 to 279 °C

**Q.** For `O=C(C=Cc1ccc(-c2cccc([N+](=O)[O-])c2)o1)c1ccccc1`, which melting point is on record?
**A.** 146 to 147 °C

**Q.** With `O=C(CCl)N(c1ccccc1)C1CCCCC1` as the compound, how does the melting point read?
**A.** 103 to 105 °C

**Q.** Which melting point does the source give for `O=CC(F)(F)C(F)(F)C(F)(F)C(F)(F)C(F)(F)C(F)(F)C(F)(F)C(F)(F)C=O` here?
**A.** 68 to 70.5 °C

**Q.** With `O=C(c1ccccc1)c1nn2c(C(F)(F)F)nnc2s1` as the compound, how does the melting point read?
**A.** 157 °C

**Q.** Which melting point does the source give for `Nc1c([N+](=O)[O-])sc2ccccc12` here?
**A.** 220 to 221 °C

**Q.** Which melting point does the source give for `O=C1NCCN1` here?
**A.** 131 °C

**Q.** For `Nc1ccc(C(=O)O)cc1N`, which melting point is on record?
**A.** 215 °C

**Q.** For `c1ccc(-c2nc3ccccc3[nH]2)cc1`, which melting point is on record?
**A.** 293 to 296 °C

**Q.** With `N#C/C(=C\c1ccc(Cl)cc1)c1nc(-c2cccc3ccccc23)cs1` as the compound, how does the melting point read?
**A.** 130 °C

**Q.** For `Cn1ccc(-c2cccc(C(=O)O)c2)n1`, which melting point is on record?
**A.** 167 to 169 °C
